This assay concerns the target T1, recombinant human GluN1/GluN2A receptor (Homo sapiens, UniProt Q05586+Q12879).
T1 construct: expressed in transfected cells; host or cells: HEK293, tetracycline-inducible expression
Nature of the assay: Whole-cell patch clamp of mammalian cells (Syncropatch 384i), NMDA modulation. In kind it is cell-based. The conditions noted are these: Table H-2; HEK293 cells, human GluN1/GluN2A; glutamate 1 μM / glycine 100 μM; -80 mV; peak amplitude increase; read-out: EC50. Summed up: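 Modulation read as fold rise in peak current, (Icomp/Icontrol)−1, from 8 concentrations with ≥2 wells each, four-parameter fit. Compound pre-incubated 120 s then co-applied with 1 μM glutamate plus 100 μM glycine; tetracycline-inducible HEK293 GluN1/GluN2A cells clamped at −80 mV.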
A general note: In patch-clamp work, channel activity is measured electrically.
T1 sequence (Q12879 23-1464, other chains not shown): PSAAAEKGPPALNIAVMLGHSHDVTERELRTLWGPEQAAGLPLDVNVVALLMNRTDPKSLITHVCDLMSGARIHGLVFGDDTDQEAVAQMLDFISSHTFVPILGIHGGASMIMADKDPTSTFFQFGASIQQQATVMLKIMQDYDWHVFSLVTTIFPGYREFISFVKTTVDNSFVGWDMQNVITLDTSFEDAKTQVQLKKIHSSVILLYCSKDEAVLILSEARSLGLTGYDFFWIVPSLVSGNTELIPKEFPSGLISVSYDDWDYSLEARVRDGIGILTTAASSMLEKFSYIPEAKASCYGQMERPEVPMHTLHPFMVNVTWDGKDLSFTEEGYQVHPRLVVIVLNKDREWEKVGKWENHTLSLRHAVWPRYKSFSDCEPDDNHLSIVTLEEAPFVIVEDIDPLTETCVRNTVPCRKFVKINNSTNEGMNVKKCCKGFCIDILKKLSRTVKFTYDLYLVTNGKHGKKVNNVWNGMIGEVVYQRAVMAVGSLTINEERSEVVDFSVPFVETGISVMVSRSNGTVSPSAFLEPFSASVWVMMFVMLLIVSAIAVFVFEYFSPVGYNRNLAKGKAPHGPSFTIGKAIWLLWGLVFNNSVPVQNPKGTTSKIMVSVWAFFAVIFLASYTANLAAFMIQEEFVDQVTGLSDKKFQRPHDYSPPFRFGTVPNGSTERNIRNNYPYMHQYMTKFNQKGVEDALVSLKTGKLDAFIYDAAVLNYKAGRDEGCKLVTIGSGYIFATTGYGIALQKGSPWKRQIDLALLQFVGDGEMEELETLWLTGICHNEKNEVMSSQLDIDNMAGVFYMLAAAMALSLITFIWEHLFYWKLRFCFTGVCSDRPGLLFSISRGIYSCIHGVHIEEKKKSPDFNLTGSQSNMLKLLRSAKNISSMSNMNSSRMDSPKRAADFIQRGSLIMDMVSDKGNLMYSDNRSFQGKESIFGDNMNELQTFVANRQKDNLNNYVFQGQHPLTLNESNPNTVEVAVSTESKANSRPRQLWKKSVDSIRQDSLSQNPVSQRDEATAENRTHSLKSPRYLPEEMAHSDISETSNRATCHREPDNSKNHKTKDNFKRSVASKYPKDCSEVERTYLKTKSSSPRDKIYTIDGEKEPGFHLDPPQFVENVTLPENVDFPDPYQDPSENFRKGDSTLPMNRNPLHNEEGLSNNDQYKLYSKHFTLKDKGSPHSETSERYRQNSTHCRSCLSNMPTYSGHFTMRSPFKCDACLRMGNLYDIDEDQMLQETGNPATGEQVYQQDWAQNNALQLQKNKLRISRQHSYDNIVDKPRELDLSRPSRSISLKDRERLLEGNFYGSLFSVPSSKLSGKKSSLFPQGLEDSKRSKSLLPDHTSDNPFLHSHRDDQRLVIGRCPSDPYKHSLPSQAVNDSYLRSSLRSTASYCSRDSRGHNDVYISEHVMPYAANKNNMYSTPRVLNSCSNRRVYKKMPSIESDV
On to `CC[C@]1(O)CC[C@@]2(C)C(=CC[C@H]3[C@@H]4CCC[C@H]([C@H](C)CC[C@](C)(O)C(F)(F)F)[C@@]4(C)CC[C@@H]32)C1` [Compound H-9, (2S,4aR,4bS,6aR,7R,10aS,10bS)-2-ethyl-4a,6a-dimethyl-7-((2R,5S)-6,6,6-trifluoro-5-hydroxy-5-methylhexan-2-yl)-1,2,3,4,4a,4b,5,6,6a,7,8,9,10,10a,10b,11-hexadecahydrochrysen-2-ol], for which the EC50 lay in the range of 100 to 500 nM.
For `CC[C@]1(O)CC[C@@]2(C)C(=CC[C@H]3[C@@H]4CCC[C@H]([C@H](C)CC[C@@](C)(O)C(F)(F)F)[C@@]4(C)CC[C@@H]32)C1` [Compound H-10, (2S,4aR,4bS,6aR,7R,10aS,10bS)-2-ethyl-4a,6a-dimethyl-7-((2R,5R)-6,6,6-trifluoro-5-hydroxy-5-methylhexan-2-yl)-1,2,3,4,4a,4b,5,6,6a,7,8,9,10,10a,10b,11-hexadecahydrochrysen-2-ol] the value was 500 to 1000 nM.
Take `C[C@H](CC[C@@](C)(O)C(F)(F)F)[C@H]1CCC[C@H]2[C@@H]3CC=C4C[C@@](C)(O)CC[C@]4(C)[C@H]3CC[C@]12C` [Compound H-11, (2S,4aR,4bS,6aR,7R,10aS,10bS)-2,4a,6a-trimethyl-7-((2R,5R)-6,6,6-trifluoro-5-hydroxy-5-methylhexan-2-yl)-1,2,3,4,4a,4b,5,6,6a,7,8,9,10,10a,10b,11-hexadecahydrochrysen-2-ol]: the EC50 was 100 to 500 nM.

The term EC50 denotes the concentration at which the effect is half-maximal.

Source of the values: patent US20240368214A1, “POSITIVE NMDA-MODULATING COMPOUNDS AND METHODS OF USE THEREOF” (SAGE THERAPEUTICS, INC., priority 2021, published 2024).
